From the METLIN SMRT retention time set (Domingo-Almenara et al. 2019) come the findings set out here.

This data set is described as follows: gradient 5% acetonitrile 3 min, to 50% in 2 min, to 85% in 15 min, held 3 min, 100 µL/min. As to conditions: column: Zorbax Extend-C18 2.1 x 50 mm; eluents: water / acetonitrile, 0.1% formic acid. The essentials:
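Values are retention times taken from adduct peaks that software picked and an analyst inspected. The pure standards were run as mixtures of ~100 molecules on HPLC linked to a quadrupole time-of-flight mass spectrometer, in positive and negative ionization mode. A Zorbax Extend-C18 column (2.1 × 50 mm, 1.8 μm) was used at 100 μL/min with water and acetonitrile, each including 0.1% formic acid.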
The compound `O=C(NCC1CCCO1)c1cn(-c2ccccc2)nc1-c1ccccc1` (stereo not drawn) displayed an RP-LC retention time of 916 s. With `O=C(Nc1cc2c3c(c1)CCC(=O)N3CCC2)C(=O)Nc1ccc2c(c1)OCO2` the figure was 747 s. The same measure for `COC(=O)c1sc2ccccc2c1S(=O)(=O)N1CCN(c2ccccn2)CC1`: 752 s; for `COc1ccc(NS(=O)(=O)c2cn(CC(C)C)c3ncccc23)cc1`: 896 s.

In turn, `Oc1ccc(-c2ccc(F)cc2)cc1CN1CCCCCC1` yielded an RP-LC retention time of 694 s. For the compound `O=C(C1=CN(c2ccc(Cl)cc2)c2ccccc2S1(=O)=O)N1CCOCC1`, the RP-LC retention time amounted to 791 s. Compound `Cc1oc(-c2[nH]ncc2C(=O)N(C)C)cc1S(=O)(=O)NCc1ccco1` had an RP-LC retention time of 622 s. The same measure for `C[C@H]1CC[C@@H]2N(C1)C[C@H]1[C@@H]3C[C@H]4[C@@H](CC(=O)[C@H]5C[C@@H](O)CC[C@@]54C)[C@@H]3CC[C@H]1[C@]2(C)O`: 601 s; for `CCc1ccc(-c2noc(Cn3nc(-c4ccc5c(c4)OCO5)ccc3=O)n2)cc1`: 1200 s.

For `O=C1NC2(CCN(C(=O)Nc3cccc(C(F)(F)F)c3)CC2)N=C1c1ccccc1`, the RP-LC retention time amounted to 902 s. With `CC(=O)Nc1ccc(-n2cnc(C(=O)NCc3ccccc3F)c2)nc1`, the RP-LC retention time worked out at 663 s. With `CCOc1ccc(-c2nc3ncccn3c2NCc2ccccc2OC)cc1OC`, the RP-LC retention time was 739 s. `CCCS(=O)(=O)c1ccc(NCc2ccc(OC)c(OC)c2)nn1` had an RP-LC retention time of 706 s. With `O=S(=O)(c1ccccc1C(F)(F)F)N1CCC2(CCN(c3cccnc3)C2)C1` (stereo not drawn) the figure was 694 s; with `O=C(O)CC(CC(=O)NCc1ccccc1)c1ccc(Br)cc1` (stereo not drawn), 712 s.

In the case of `CCC(=O)N1CCc2cc(S(=O)(=O)CCC(=O)N3CCN(c4ccc(C)cc4)C(C)C3)ccc21` (stereo not drawn), the RP-LC retention time is 704 s. In the case of `CCc1cccc(NC(=O)Cn2nc3cc(C)nc(Nc4ccccc4C)n3c2=O)c1`, the RP-LC retention time turned out to be 711 s. As to `COCCN1C(=O)c2ccccc2C(C(=O)NCc2ccccc2)C1c1cccs1` (stereo not drawn), the RP-LC retention time was 842 s. For the compound `COCCN1C(=O)[C@H]2CN(S(=O)(=O)c3ccccc3)C[C@H]2C1=O`, the RP-LC retention time was 712 s.

Take `Cc1ccc(Cn2nc3ccc(S(=O)(=O)N4CCSCC4)cn3c2=O)cc1C`: the RP-LC retention time was determined as 1000 s. `Cc1ccn2c(Nc3ccccc3C)c(-c3ccc(N4CCOCC4)cc3)nc2c1` gave an RP-LC retention time of 746 s.

For the compound `CCOc1ccc(S(=O)(=O)N2CCCC(C(=O)NC3CCCCCC3)C2)cc1` (stereo not drawn), the RP-LC retention time is 1060 s. The compound `COc1cccc(N2CCN(Cc3nc(-c4ccc(N5CCCCC5)nc4)no3)CC2)c1` registered an RP-LC retention time of 930 s. As to `COc1ccc(C)cc1NC(=O)C1CCc2nc(N3CCOCC3)ncc2C1` (stereo not drawn), the RP-LC retention time worked out at 832 s. The compound `Nc1cccc(-c2ccc(N3CCCCC3)nn2)c1` yielded an RP-LC retention time of 570 s.

For the compound `Cn1cc(CN2CCCC(COc3ccccc3C(=O)N3CCCCC3)C2)c2ccccc21` (stereo not drawn), the RP-LC retention time was found to be 753 s. `Cc1ccc(NC(=O)c2cccn2Cc2noc(C)n2)cc1` yielded an RP-LC retention time of 856 s. Regarding `OC[C@@H]1CN(Cc2ccccn2)C[C@H]1c1nc(-c2cccnc2)no1`, the RP-LC retention time turned out to be 551 s.

Compound `CS(=O)(=O)N1CCC(Cc2ccc(C(=O)O)cc2)CC1` registered an RP-LC retention time of 728 s. `COC(=O)N1CCN(C(=O)Cc2ccc(Cl)c(Cl)c2)C(CN2CCCC2)C1` (stereo not drawn) had an RP-LC retention time of 688 s. `CC(C)C(NC(=O)NCc1ccccc1)C(=O)N1CCc2ccccc21` (stereo not drawn) displayed an RP-LC retention time of 896 s. The same measure for `CC(C)C(=O)N1CCc2c([nH]c3ccccc23)C12C(=O)Nc1ccc(Br)cc12` (stereo not drawn): 925 s; for `Cc1nnc(N2CCC(C(=O)NCCN3CCOCC3)CC2)c2nn(-c3ccc(Cl)cc3)c(C)c12`: 571 s; for `O=C(Cc1ccccc1Cl)N1CCCC1c1nc(-c2ccccc2)no1` (stereo not drawn): 1020 s. In turn, `CC1CCCN(C(=O)c2cn(-c3ccc(-c4nc(C5CC5)no4)cn3)cn2)C1` (stereo not drawn) displayed an RP-LC retention time of 840 s. For `COC(=O)c1ccccc1NC(=O)Cn1cccc(-c2nc(-c3ccc(OC)c(OC)c3)no2)c1=O`, the RP-LC retention time is 871 s. With `O=C(c1nc(-c2ccnc(N3CCCCC3)c2)no1)N1CCCCC1` the figure was 764 s. `Cc1ncc2c(SCC(=O)Nc3ccc(Br)cc3)ncnc2n1` came in with an RP-LC retention time of 578 s.

As for `O=C(Nc1nnc(C2CC(=O)N(c3ccccc3)C2)o1)c1ccc(Br)cc1` (stereo not drawn), the RP-LC retention time turned out to be 766 s. Turning to `CCCCC(=O)N1CCN(C(=O)c2cc3cc(Br)ccc3[nH]2)CC1`, the RP-LC retention time was found to be 873 s. The compound `CCn1c(CCC(=O)NCc2ccc(Cl)cc2)nc2ccccc2c1=O` returned an RP-LC retention time of 812 s. The same measure for `O=C(Cn1nc2c(Oc3ccccc3)nccn2c1=O)Nc1ccc(Br)cc1F`: 898 s; for `O=C(Cn1nc2nc(N3CCCC3)ccn2c1=O)NCc1ccc(Cl)cc1`: 690 s. For `COc1cccc(NC(=O)Cn2c(=O)n(-c3ccccc3)c(=O)c3c2cc(C)n3C)c1`, the RP-LC retention time came to 789 s. Regarding `O=C(O)c1ccccc1C(=O)Nc1ccccc1[N+](=O)[O-]`, the RP-LC retention time was 782 s. On to `O=C(C1CC1)N1CCCN(c2ccc([N+](=O)[O-])cc2)CC1`, for which the RP-LC retention time turned out to be 688 s. `O=C(NCc1ccc2c(c1)OCO2)C(=O)c1cccn1Cc1ccccc1` registered an RP-LC retention time of 980 s. As to `Cn1c(Nc2ccc(C(F)(F)F)cc2)nc2cc(Oc3ccnc(-c4ncc(C(F)(F)F)[nH]4)c3)ccc21`, the RP-LC retention time is 994 s. With `O=C(Cn1c(=O)c2nncn2c2ncccc21)N1CCN(c2ccc(Cl)cc2)CC1` the figure was 744 s; with `CCN1CCC(N(Cc2ccc3c(c2)OCO3)C(=O)Nc2ccc(F)cc2)CC1`, 656 s. Take `Nc1n[nH]c(-c2ccccc2)n1`: the RP-LC retention time was 619 s.

Take `O=C(Nc1cccc(OCc2nnc(-c3ccccc3)o2)c1)c1ccoc1`: the RP-LC retention time was found to be 868 s. Compound `CCCOc1nc2ccccc2nc1N1CCCC(C(=O)NCc2ccccc2Cl)C1` (stereo not drawn) had an RP-LC retention time of 1270 s. `COc1ccc(OC)c(NC(=O)Cn2c(=O)n(-c3ccc(C)cc3)c(=O)c3c2cc(C)n3C)c1` registered an RP-LC retention time of 908 s. `O=C(NCCn1nc(-c2ccco2)ccc1=O)c1n[nH]c2ccccc12` returned an RP-LC retention time of 643 s. Compound `CCN(C(=O)c1ccc(OC)c(OC)c1)c1nc(-c2ccc(C)cc2)cs1` showed an RP-LC retention time of 1200 s. With `NC1CC1c1ccccc1` (stereo not drawn) the figure was 621 s. In turn, `Cc1ccc(C)c(N2CCN(C(=O)Cn3cnc4nc5c(cc4c3=O)CCCC5)CC2)c1` registered an RP-LC retention time of 893 s. In turn, `CCCc1nc(-c2c(C)cc(C)nc2NC(=O)c2ccccc2Br)no1` registered an RP-LC retention time of 927 s.

Take `COCCNC(=O)c1sc2c(cnc3cc4c(cc32)OCO4)c1-c1ccccc1`: the RP-LC retention time stood at 732 s. With `CN1CCCn2nc(C3CCN(C(=O)Nc4cccc(C#N)c4)CC3)cc2C1=O`, the RP-LC retention time is 656 s. With `COc1cc(NC(=O)N2CCC(c3nc(C(=O)N(C)C)c(C)o3)CC2)cc(OC)c1` the figure was 711 s. `CN(Cc1ccccc1)C(=O)CN1C(=O)C2CCCCN2c2ccc(S(=O)(=O)N3CCCC3)cc21` (stereo not drawn): the RP-LC retention time is 987 s. The same measure for `O=C(c1cnccn1)N1CC(c2nc(CCOCC3CC3)no2)C1`: 691 s; for `CC(Cc1ccco1)NC(=O)C1CCN(S(=O)(=O)c2ccc3c(c2)sc(=O)n3C)CC1` (stereo not drawn): 807 s; for `Clc1ccccc1-c1nnc2sc(-c3ccc4ccccc4n3)nn12`: 1150 s. Compound `CCN(C(=O)C1CCN(S(=O)(=O)c2ccc3c(c2)sc(=O)n3CC)CC1)c1ccccc1` yielded an RP-LC retention time of 942 s. In turn, `Cc1csc(-c2ccc(N3CCN(C(=O)c4cc(Cl)ccc4F)CC3)nc2)n1` registered an RP-LC retention time of 943 s. In the case of `C[C@H](N)C(=O)N[C@@H](C)C(=O)N[C@@H](Cc1ccccc1)C(=O)CCl`, the RP-LC retention time is 638 s. As to `CN(C)c1ncccc1NC(=O)Nc1ccccc1F`, the RP-LC retention time is 601 s. With `CCN1c2ccc(F)cc2C(=O)NC12CCN(C(=O)Cc1ccccc1C)CC2`, the RP-LC retention time amounted to 846 s. Take `O=C1C2C=CC=CC2=NC(=S)N1CCN1CCC(=C(c2ccc(F)cc2)c2ccc(F)cc2)CC1` (stereo not drawn): the RP-LC retention time was determined as 1000 s.

For `CC(C)n1cnc(S(=O)(=O)N2CCCC(C(=O)Nc3ccc(F)c(Cl)c3)C2)c1` (stereo not drawn), the RP-LC retention time was found to be 848 s. Take `O=C(NCc1ccc(F)cc1)c1ccc2ncnc(N3CCCC3)c2c1`: the RP-LC retention time is 646 s. With `Cc1ccc(CNC(=O)Cn2c(=O)c3cc(-c4cccs4)nn3c3ncccc32)cc1`, the RP-LC retention time stood at 868 s. Compound `COc1cc(OC)c(NC(=O)N2CC(c3nc(C(C)C)nn3C)C2)cc1Cl` came in with an RP-LC retention time of 695 s. Turning to `O=C(CN1CCN(C(=O)Nc2ccc(Br)cc2)CC1=O)N1CCCCC1`, the RP-LC retention time came to 701 s. Consider `CCn1cc(-c2nc(C(=O)Nc3cc(OC)cc(OC)c3)cs2)c2cccnc21`, for which the RP-LC retention time stood at 1030 s.
